Measurements from article PMC4138103 (PLoS ONE, 2014).
Read-outs that look alike come from different tables or passages of the source.

System: Sprague-Dawley rats
Experiment: Retinoid analyses in liver, serum and kidney
Format: in vivo, Rattus norvegicus
Conditions: for CED, Kidney all-trans RA amount / CED, Kidney all-trans RA concentration / CED, Kidney retinol amount / CED, Kidney retinol concentration / CED, Liver retinol amount / CED, Liver retinol concentration / CED, Liver retinyl esters amount / CED, Liver retinyl esters concentration / CED, Serum retinol concentration / CED-L, Kidney all-trans RA amount / CED-L, Kidney all-trans RA concentration / CED-L, Kidney retinol amount / CED-L, Kidney retinol concentration / CED-L, Liver retinol amount / CED-L, Liver retinol concentration / CED-L, Liver retinyl esters amount / CED-L, Liver retinyl esters concentration / CED-L, Serum retinol concentration / CED, Liver 9c-4o-13,14-dh-RA amount / CED, Liver 9c-4o-13,14-dh-RA concentration / CED-L, Liver 9c-4o-13,14-dh-RA amount / CED-L, Liver 9c-4o-13,14-dh-RA concentration / CED, Liver all-trans RA amount / CED, Liver all-trans RA concentration / CED-L, Liver all-trans RA amount / CED-L, Liver all-trans RA concentration / CED, Kidney retinyl esters amount / CED, Kidney retinyl esters concentration / CED-L, Kidney retinyl esters amount / CED-L, Kidney retinyl esters concentration: adipose tissue concentration based; for Emax: Rattus norvegicus, controls vs high dose according to the fitted model
Description: Retinoids in liver, serum, and kidney were analyzed according to Schmidt et al.. The polar retinoids 9-cis-retinoic acid (9-cis-RA), 13-cis-retinoic acid (13-cis-RA), 13-cis-4-oxo-retinoic acid (13-cis-4-o-RA), 9-cis-4-oxo-13,14-dihydro-retinoic acid (9-cis-4-o-13,14-dh-RA), all-trans retinoic acid (all-trans RA) and the apolar retinoids retinol and retinyl palmitate were extracted by a single liquid-extraction, separated from each other via solid-phase extraction using an aminopropyl phase, and then injected onto two different HPLC systems that were coupled with UV detection. […] The limits of detection (LOD) for all-trans RA and 9c-4o-13,14-dh-RA were 0.7 and 1.0 pmol/g tissue, and 0.3 and 0.6 pmol/ml serum, respectively. Retinol and retinyl palmitate were separated on a J'sphere ODS-H80 (4.6×150 mm, 4 µm particle size) obtained from YMC (Schermbeck, Germany), and were detected at 325 nm. The LOD for retinol and retinyl palmitate were 5.6 and 5.5 pmol/g tissue, and 4.2 and 4.2 pmol/ml serum, respectively.
Data were also analyzed using the BMD method, which is based on dose-response modeling of the full data set using a nested family of exponential and Hill models. The analyses were done on data of males and females combined, using sex as a covariate. […] In that case, different Critical Effect Doses (CEDs) and CEDs at the lowest bound of the confidence interval (CED-L) were generated for each sex. If no difference between sexes is detected, a CED and CED-Ls for the combined data is generated. However, this was also done if the curve fits are close, and separate analyses for males and females were then performed manually. CEDs and CED-Ls were calculated at the predefined Critical Effect Size (CES) of 5% (EFSA standard) or 10%.

## Clc1cc(Cl)c(-c2cc(Cl)c(Cl)c(Cl)c2Cl)cc1Cl [PCB 180, 2,2′,3′,4,4′,5,5′-heptachlorobiphenyl]
F, CES 5%, model E2
  CED, Kidney all-trans RA amount: 3290 µg/g lipid
  CED, Kidney all-trans RA concentration: 2930 µg/g lipid
  CED, Kidney retinol amount: 2240 µg/g lipid
  CED, Kidney retinol concentration: 2060 µg/g lipid
  CED, Liver retinol amount: 2840 µg/g lipid
  CED, Liver retinol concentration: 1000 µg/g lipid
  CED, Liver retinyl esters amount: 1620 µg/g lipid
  CED, Liver retinyl esters concentration: 793 µg/g lipid
  CED, Serum retinol concentration: 2470 µg/g lipid
  CED-L, Kidney all-trans RA amount: 2092 µg/g lipid
  CED-L, Kidney all-trans RA concentration: 2052 µg/g lipid
  CED-L, Kidney retinol amount: 1398 µg/g lipid
  CED-L, Kidney retinol concentration: 1346 µg/g lipid
  CED-L, Liver retinol amount: 1476 µg/g lipid
  CED-L, Liver retinol concentration: 762 µg/g lipid
  CED-L, Liver retinyl esters amount: 1206 µg/g lipid
  CED-L, Liver retinyl esters concentration: 670 µg/g lipid
  CED-L, Serum retinol concentration: 1521 µg/g lipid
F, CES 5%, model E4
  CED, Liver 9c-4o-13,14-dh-RA amount: 59.6 µg/g lipid
  CED, Liver 9c-4o-13,14-dh-RA concentration: 55.5 µg/g lipid
  CED-L, Liver 9c-4o-13,14-dh-RA amount: 37.4 µg/g lipid
  CED-L, Liver 9c-4o-13,14-dh-RA concentration: 39.6 µg/g lipid
F, CES 10%, model E2
  CED, Kidney all-trans RA amount: 6430 µg/g lipid
  CED, Kidney all-trans RA concentration: 5720 µg/g lipid
  CED, Kidney retinol amount: 4370 µg/g lipid
  CED, Kidney retinol concentration: 4030 µg/g lipid
  CED, Liver retinol amount: 5820 µg/g lipid
  CED, Liver retinol concentration: 2060 µg/g lipid
  CED, Liver retinyl esters amount: 3300 µg/g lipid
  CED, Liver retinyl esters concentration: 1630 µg/g lipid
  CED, Serum retinol concentration: 4820 µg/g lipid
  CED-L, Kidney all-trans RA amount: 4088 µg/g lipid
  CED-L, Kidney all-trans RA concentration: 4009 µg/g lipid
  CED-L, Kidney retinol amount: 2731 µg/g lipid
  CED-L, Kidney retinol concentration: 2630 µg/g lipid
  CED-L, Liver retinol amount: 3032 µg/g lipid
  CED-L, Liver retinol concentration: 1565 µg/g lipid
  CED-L, Liver retinyl esters amount: 2477 µg/g lipid
  CED-L, Liver retinyl esters concentration: 1375 µg/g lipid
  CED-L, Serum retinol concentration: 2970 µg/g lipid
F, CES 10%, model E4
  CED, Liver 9c-4o-13,14-dh-RA amount: 124 µg/g lipid
  CED, Liver 9c-4o-13,14-dh-RA concentration: 115 µg/g lipid
  CED-L, Liver 9c-4o-13,14-dh-RA amount: 77.9 µg/g lipid
  CED-L, Liver 9c-4o-13,14-dh-RA concentration: 82.1 µg/g lipid
M, CES 5%, model E2
  CED, Kidney retinol amount: 897 µg/g lipid
  CED, Kidney retinol concentration: 863 µg/g lipid
  CED, Liver all-trans RA amount: 95.1 µg/g lipid
  CED, Liver all-trans RA concentration: 1920 µg/g lipid
  CED, Liver retinol amount: 1860 µg/g lipid
  CED, Liver retinyl esters amount: 620 µg/g lipid
  CED-L, Kidney retinol amount: 638 µg/g lipid
  CED-L, Kidney retinol concentration: 640 µg/g lipid
  CED-L, Liver all-trans RA amount: 36.8 µg/g lipid
  CED-L, Liver all-trans RA concentration: 1143 µg/g lipid
  CED-L, Liver retinol amount: 1111 µg/g lipid
  CED-L, Liver retinyl esters amount: 525 µg/g lipid
M, CES 5%, model E4
  CED, Kidney retinyl esters amount: 38.8 µg/g lipid
  CED, Kidney retinyl esters concentration: 42.2 µg/g lipid
  CED, Liver retinol concentration: 31.2 µg/g lipid
  CED, Liver retinyl esters concentration: 108 µg/g lipid
  CED-L, Kidney retinyl esters amount: 12.5 µg/g lipid
  CED-L, Kidney retinyl esters concentration: 13.6 µg/g lipid
  CED-L, Liver retinol concentration: 18.8 µg/g lipid
  CED-L, Liver retinyl esters concentration: 60.1 µg/g lipid
M, CES 10%, model E2
  CED, Kidney retinol amount: 1750 µg/g lipid
  CED, Kidney retinol concentration: 1690 µg/g lipid
  CED, Liver all-trans RA amount: 196 µg/g lipid
  CED, Liver all-trans RA concentration: 3750 µg/g lipid
  CED, Liver retinol amount: 3820 µg/g lipid
  CED, Liver retinyl esters amount: 1270 µg/g lipid
  CED-L, Kidney retinol amount: 1244 µg/g lipid
  CED-L, Kidney retinol concentration: 1250 µg/g lipid
  CED-L, Liver all-trans RA amount: 76 µg/g lipid
  CED-L, Liver all-trans RA concentration: 2233 µg/g lipid
  CED-L, Liver retinol amount: 2282 µg/g lipid
  CED-L, Liver retinyl esters amount: 1078 µg/g lipid
M, CES 10%, model E4
  CED, Kidney retinyl esters amount: 78.3 µg/g lipid
  CED, Kidney retinyl esters concentration: 85.2 µg/g lipid
  CED, Liver retinol concentration: 66.6 µg/g lipid
  CED, Liver retinyl esters concentration: 225 µg/g lipid
  CED-L, Kidney retinyl esters amount: 25.2 µg/g lipid
  CED-L, Kidney retinyl esters concentration: 27.5 µg/g lipid
  CED-L, Liver retinol concentration: 40.0 µg/g lipid
  CED-L, Liver retinyl esters concentration: 126 µg/g lipid
F, model E2, read-out: Maximum response, Kidney all-trans RA amount
  Emax: 18.2%
F, model E2, read-out: Maximum response, Kidney all-trans RA concentration
  Emax: 20.7%
F, model E2, read-out: Maximum response, Kidney retinol amount
  Emax: 28%
F, model E2, read-out: Maximum response, Kidney retinol concentration
  Emax: 30.7%
F, model E2, read-out: Maximum response, Liver retinol amount
  Emax: -18.5%
F, model E2, read-out: Maximum response, Liver retinol concentration
  Emax: -43.9%
F, model E2, read-out: Maximum response, Liver retinyl esters amount
  Emax: -30.1%
F, model E2, read-out: Maximum response, Liver retinyl esters concentration
  Emax: -51.9%
F, model E2, read-out: Maximum response, Serum retinol concentration
  Emax: 25%
